{
  "source": "patent US9067928B2",
  "about": "(Genentech, Inc., priority 2008, dated 2015)",
  "key": {"Bcl-2": {"target": "T1, Bcl-2 (Homo sapiens, UniProt P10415)", "T1 construct": "made in house", "T1 sequence (P10415 whole entry, species assumed)": "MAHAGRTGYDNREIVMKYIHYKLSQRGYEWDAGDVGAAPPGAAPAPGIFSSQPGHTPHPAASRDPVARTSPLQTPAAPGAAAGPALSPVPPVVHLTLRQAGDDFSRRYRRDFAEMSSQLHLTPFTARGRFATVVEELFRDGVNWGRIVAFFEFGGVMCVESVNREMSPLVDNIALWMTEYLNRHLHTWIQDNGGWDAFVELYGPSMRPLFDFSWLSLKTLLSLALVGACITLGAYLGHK", "assay": "TR-FRET binding assay, competition with F-Bak for Bcl-2 binding site", "details": "GST-Bcl-2, F-Bak probe", "protocol": "Test compounds were serially diluted in DMSO starting at 50 μM (2× starting concentration; 10% DMSO) and 10 μL transferred into a 384-well plate.\nThe samples are then mixed on a shaker for 1 minute then incubated for an additional 2 hours at room temperature. For each assay plate, a probe/antibody and protein/antibody/probe mixture were included as a negative and a positive control, respectively. Fluorescence was measured on the Envision (Perkin Elmer) using a 340/35 nm excitation filter and 520/525 (F-Bak) and 495/510 nm (Tb-labeled anti-his antibody) emission filters. Dissociation constants (Ki) were determined using Wang's equation (see, Wang, Z. X. An exact mathematical expression for describing competitive binding of two different ligands to a protein molecule. FEBS Lett. 1995 360:111-114). The TR-FRET assay can be performed in the presence of varying concentrations of human serum (HS) or fetal bovine serum (FBS).\nFor comparison, the measurement of the competition of compounds of the invention for other Bcl-2 family protein binding sites (e.g., Bcl-2, Mcl-1) using the TR-FRET binding assay was accomplish by substituting GST-Bcl-xL in the TR-FRET assay with other GST-labeled protein, e.g. GST-Bcl-2, GST-Mcl-1 prepared in-house.\nFor comparison, data (Ki in micromolar) from the measurement of the competition by certain compounds of the invention (i.e., compounds 1, 28, 38, 63, 71, 75, 80, 81, 92 and 94 in Table 1) with F-Bak for the Bcl-2 binding site using the TR-FRET binding assay are, 1.2, 0.15, 0.01, 0.018, 0.50, 0.272, 0.167, 0.66, 0.23 and 0.000003 respectively."}, "Bcl-xL": {"target": "T2, Bcl-xL (Homo sapiens, UniProt Q07817)", "T2 construct": "made in house", "T2 sequence (Q07817 whole entry, species assumed)": "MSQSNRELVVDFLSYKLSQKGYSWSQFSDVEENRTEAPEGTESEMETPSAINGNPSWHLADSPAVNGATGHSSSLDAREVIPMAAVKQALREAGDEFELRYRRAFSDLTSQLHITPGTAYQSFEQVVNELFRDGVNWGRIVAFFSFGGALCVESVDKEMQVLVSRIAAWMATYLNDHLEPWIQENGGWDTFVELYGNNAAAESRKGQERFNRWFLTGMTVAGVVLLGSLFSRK", "assay": "Alpha Screen Bcl-xL binding assay, competition with Bim26-mer", "details": "values listed in the order of Table 1; read-out: Alphascreen results (IC50)"}},
  "data": [
    {"smiles": "O=C(O)c1nc(-c2ccc3c(c2)N(C(=O)Nc2nc4ccccc4s2)CCC3)sc1-c1ccc(-c2ccccc2)cc1", "note": "[Example 92, 2-(1-(benzo[d]thiazol-2-ylcarbamoyl)-1,2,3,4-tetrahydroquinolin-7-yl)-5-(biphenyl-4-yl)thiazole-4-carboxylic acid]", "values": [
      {"measurement": "Ki", "setting": "Bcl-2", "result": 230, "unit": "nM"},
      {"measurement": "IC50", "setting": "Bcl-xL", "result": 2, "unit": "nM"}
    ]}
  ]
}
